Source: patent US20170065564A1, “BIS-CYCLIC GUANIDINE COMPOUND COMPOSITIONS, METHODS OF USE AND TREATMENT THEREOF” (University of South Florida, priority 2014, published 2017)
Values after ≈ are worked out from the molar mass of the structure shown.

Columns and labels:
Klebsiella pneumoniae = assay: MIC micro broth dilution assay; format: cell-based; set-up: key to stacked score activity, 100/MIC, K: stacked score = 100/MIC; conditions: for stacked score activity, 100/MIC, K: K. pneumoniae; for concentration inhibiting 90% of isolates / concentration inhibiting 70% of strains: panel of K. pneumoniae clinical isolates
How it was run: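 Multidrug-resistant clinical ESKAPE isolates were grown overnight (Gram-positives in TSB, Gram-negatives in LB), diluted 1:1,000 and exposed to decreasing compound concentrations in DMF (≤2.0% DMF).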

ESKAPE pathogens = assay: MIC micro broth dilution assay, statements and stacked scores over all ESKAPE pathogens; format: cell-based; conditions: for pathogens against which the compound showed activity at 4 ug/ml / pathogens against which the compound showed activity at 5 ug/ml / pathogens against which the compound showed activity at 10 ug/ml / pathogens against which the compound showed activity at 25 ug/ml: letters E,S,K,A,P,E = ESKAPE pathogens, — = none
How it was run: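 Overnight cultures of multidrug-resistant clinical isolates, diluted 1 in 1,000 (Gram-positives in TSB, Gram-negatives in LB), were exposed to decreasing compound concentrations in DMF (≤2.0%) at 37° C. MIC was read visually as no turbidity after 24 hours, in triplicate. Broad-spectrum activity was ranked by stacked scores.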

E. cloacae = assay: MIC reanalysis in the presence of the efflux inhibitor reserpine; format: cell-based, Enterobacter cloacae; conditions: E. cloacae strain 1446; with 100 μM of reserpine
Source text: (§1) Given the minor variations observed in MIC for three of the Gram-negative organisms, and that these particular bacteria are renowned for efflux detoxification of antibacterial agents, we hypothesized that the differences observed likely relate to variation in efflux pump activity between strains. […] The effects observed appear to be universal, regardless of strain or compound tested. […] It should be noted that the data presented herein represents a worst-case scenario. […] Similar data was returned for all front runner agents, against all 10 isolates of the three Gram-negative organisms (data not shown). These findings support the hypothesis that inherent efflux mechanisms of certain Gram-negative organisms result in MIC variations for the lead bis-cyclic guanidines between clinical isolates.

P. aeruginosa [1] = format: cell-based, Pseudomonas aeruginosa; conditions: 8 passages, concentration doubled each day
Experimental: ESKAPE pathogens were grown overnight in liquid media at 37° C. These cultures were then diluted 1:100 in fresh media, and seeded into a 96-well plate. Lead bis-cyclic guanidines or control agents were added to respective wells at half MIC concentrations. […] These were then grown overnight, and the procedure repeated for a total of eight days.

P. aeruginosa [2] = assay: MIC reanalysis in the presence of the efflux inhibitor reserpine; format: cell-based, Pseudomonas aeruginosa
Source text: as §1

K. pneumoniae = assay: as above; format: cell-based, Klebsiella pneumoniae; conditions: K. pneumoniae strain 1441; with 100 μM of reserpine
Source text: as §1

[3] = Klebsiella pneumoniae, K. pneumoniae isolate 1408
[4] = Klebsiella pneumoniae, K. pneumoniae isolate 1409
[5] = Klebsiella pneumoniae, K. pneumoniae isolate 1410
[6] = Klebsiella pneumoniae, K. pneumoniae isolate 1411
[7] = Klebsiella pneumoniae, K. pneumoniae isolate 1412
[8] = Klebsiella pneumoniae, K. pneumoniae isolate 1413
[9] = Klebsiella pneumoniae, K. pneumoniae isolate 1433
[10] = Klebsiella pneumoniae, K. pneumoniae isolate 1434
[11] = Klebsiella pneumoniae, K. pneumoniae isolate 1440
[12] = Klebsiella pneumoniae, K. pneumoniae isolate 1441
[13] = Klebsiella pneumoniae, purified compound, Table 1

Row | SMILES | stacked score activity, 100/MIC, K (Klebsiella pneumoniae) | MIC (Klebsiella pneumoniae; [3]) | MIC (Klebsiella pneumoniae; [4]) | MIC (Klebsiella pneumoniae; [5]) | MIC (Klebsiella pneumoniae; [6]) | MIC (Klebsiella pneumoniae; [7]) | MIC (Klebsiella pneumoniae; [8]) | MIC (Klebsiella pneumoniae; [9]) | MIC (Klebsiella pneumoniae; [10]) | MIC (Klebsiella pneumoniae; [11]) | MIC (Klebsiella pneumoniae; [12]) | MIC (Klebsiella pneumoniae; [13]) | concentration inhibiting 90% of isolates (Klebsiella pneumoniae) | pathogens against which the compound showed activity at 4 ug/ml (ESKAPE pathogens) | pathogens against which the compound showed activity at 5 ug/ml (ESKAPE pathogens) | pathogens against which the compound showed activity at 10 ug/ml (ESKAPE pathogens) | pathogens against which the compound showed activity at 25 ug/ml (ESKAPE pathogens) | concentration inhibiting 70% of strains (Klebsiella pneumoniae) | increase in MIC after serial passage (P. aeruginosa [1]) | other results
1 | CCCCCCCN1C(=N)N(CCCC[C@H]2CNC(=N)N2CCc2cccc(C(F)(F)F)c2)C[C@@H]1CC1CCCCC1 [Compound 7] | 20 | 2 µM (≈ 1.18 µg/mL) | 3 µM (≈ 1.77 µg/mL) | 2 µM (≈ 1.18 µg/mL) | 2 µM (≈ 1.18 µg/mL) | 2 µM (≈ 1.18 µg/mL) | 2 µM (≈ 1.18 µg/mL) | 2 µM (≈ 1.18 µg/mL) | 5 µM (≈ 2.95 µg/mL) | 3 µM (≈ 1.77 µg/mL) | 2 µM (≈ 1.18 µg/mL) | 1.52 µM (≈ 0.898 µg/mL) | 5 µM | ESAP | ESKAPE | ESKAPE | ESKAPE |  |  | effect on growth, in combination with reserpine (E. cloacae): complete inhibition of growth
2 | CCCCCCCN1C(=N)N(CCCC[C@H]2CNC(=N)N2CCC23CC4CC(CC(C4)C2)C3)C[C@@H]1CCCC [Compound 19] | 20 |  |  |  |  |  |  |  |  |  |  |  | 5 µM | ESAP | ESKAPE | ESKAPE | ESKAPE | 2 µM | 8 fold | MIC (Klebsiella pneumoniae; K. pneumoniae isolate 1408): 2.0 µM (≈ 1.08 µg/mL); MIC (Klebsiella pneumoniae; K. pneumoniae isolate 1409): 3.0 µM (≈ 1.62 µg/mL); MIC (Klebsiella pneumoniae; K. pneumoniae isolate 1410): 3.0 µM (≈ 1.62 µg/mL); MIC (Klebsiella pneumoniae; K. pneumoniae isolate 1411): 2.0 µM (≈ 1.08 µg/mL); MIC (Klebsiella pneumoniae; K. pneumoniae isolate 1412): 3.0 µM (≈ 1.62 µg/mL); MIC (Klebsiella pneumoniae; K. pneumoniae isolate 1413): 3.0 µM (≈ 1.62 µg/mL); MIC (Klebsiella pneumoniae; K. pneumoniae isolate 1433): 2.0 µM (≈ 1.08 µg/mL); MIC (Klebsiella pneumoniae; K. pneumoniae isolate 1434): 5.0 µM (≈ 2.7 µg/mL); MIC (Klebsiella pneumoniae; K. pneumoniae isolate 1440): 3.0 µM (≈ 1.62 µg/mL); MIC (Klebsiella pneumoniae; K. pneumoniae isolate 1441): 2.0 µM (≈ 1.08 µg/mL); MIC (Klebsiella pneumoniae; purified compound, Table 1): 1.66 µM (≈ 0.898 µg/mL); stacked score Total (ESKAPE pathogens; stacked score over all ESKAPE pathogens (details in Table S4b)): 156; Total stacked score (ESKAPE pathogens; sum over all six ESKAPE pathogens): 156; effect on growth, paired with reserpine (P. aeruginosa [2]; P. aeruginosa strain 1414, with reserpine): complete inhibition of growth
3 | CCCCCCCN1C(=N)N(CCCC[C@H]2CNC(=N)N2CCCCC2CCCCC2)C[C@@H]1CC1CCCCC1 [Compound 16] | 20 | 2 µM (≈ 1.11 µg/mL) | 3 µM (≈ 1.67 µg/mL) | 3 µM (≈ 1.67 µg/mL) | 2 µM (≈ 1.11 µg/mL) | 3 µM (≈ 1.67 µg/mL) | 3 µM (≈ 1.67 µg/mL) | 2 µM (≈ 1.11 µg/mL) | 5 µM (≈ 2.78 µg/mL) | 3 µM (≈ 1.67 µg/mL) | 2 µM (≈ 1.11 µg/mL) | 1.62 µM (≈ 0.902 µg/mL) | 5 µM | EAP | ESKAPE | ESKAPE | ESKAPE |  | 8 fold | effect on growth, in combination with reserpine (K. pneumoniae): complete inhibition of growth
4 | CCCC[C@H]1CN(CCCC[C@H]2CNC(=N)N2CCc2cccc(C(F)(F)F)c2)C(=N)N1CCCCC1CCCCC1 [Compound 2, (S)-4-butyl-3-(4-cyclohexylbutyl)-1-(4-((S)-2-imino-3-(3-(trifluoromethyl)phenethyl)imidazolidin-4-yl)butyl)imidazolidin-2-imine] | 20 | 2 µM (≈ 1.18 µg/mL) | 3 µM (≈ 1.77 µg/mL) | 2 µM (≈ 1.18 µg/mL) | 2 µM (≈ 1.18 µg/mL) | 2 µM (≈ 1.18 µg/mL) | 2 µM (≈ 1.18 µg/mL) | 2 µM (≈ 1.18 µg/mL) | 3 µM (≈ 1.77 µg/mL) | 5 µM (≈ 2.95 µg/mL) | 2 µM (≈ 1.18 µg/mL) | 1.52 µM (≈ 0.898 µg/mL) | 5 µM | ESAP | ESKAPE | ESKAPE | ESKAPE | 2 µM |  | 
5 | CCCCCCCN1C(=N)N(CCCC[C@H]2CNC(=N)N2CCc2cccc(C(F)(F)F)c2)C[C@@H]1CCCC [Compound 1] | 33 | 2 µM (≈ 1.1 µg/mL) | 3 µM (≈ 1.65 µg/mL) | 3 µM (≈ 1.65 µg/mL) | 2 µM (≈ 1.1 µg/mL) | 5 µM (≈ 2.75 µg/mL) | 3 µM (≈ 1.65 µg/mL) | 2 µM (≈ 1.1 µg/mL) | 5 µM (≈ 2.75 µg/mL) | 2 µM (≈ 1.1 µg/mL) | 2 µM (≈ 1.1 µg/mL) | 1.63 µM (≈ 0.898 µg/mL) | 10 µM |  | ESKAPE | ESKAPE | ESKAPE |  |  | effect on growth, combined with reserpine (P. aeruginosa [2]; P. aeruginosa isolate 1420, 2 μM compound plus 100 μM reserpine): strongly inhibited growth; effect on growth, agent alone (P. aeruginosa [2]; P. aeruginosa isolate 1420, 100 μM of reserpine or 2 μM of compound 1 individually): no effect
